This is an account of results in ChEMBL document CHEMBL1122684, “The 3,4-catechol derivative of propranolol, a minor dihydroxylated metabolite” (J Med Chem, 1984).

The target of experiment [1] is Beta-1 adrenergic receptor (Cavia porcellus, UniProt B0FL73). Put plainly: Compound was evaluated for competitive antagonism of beta-1 adrenergic receptor in guinea pig atria measured as pA2 (-log KB). In kind it is functional. Particulars: read-out: pA2 (converted).
Experiment [2] addresses Beta-2 adrenergic receptor (Rattus norvegicus) (UniProt P10608). Put plainly: Compound was evaluated for competitive antagonism of beta-2 adrenergic receptor in rat uterus measured as pA2 (-log KB).

SMILES strings stand for the structures. Structures can show the parent of a compound that is named as a salt.

Beta-1 adrenergic receptor, sequence (B0FL73 whole entry): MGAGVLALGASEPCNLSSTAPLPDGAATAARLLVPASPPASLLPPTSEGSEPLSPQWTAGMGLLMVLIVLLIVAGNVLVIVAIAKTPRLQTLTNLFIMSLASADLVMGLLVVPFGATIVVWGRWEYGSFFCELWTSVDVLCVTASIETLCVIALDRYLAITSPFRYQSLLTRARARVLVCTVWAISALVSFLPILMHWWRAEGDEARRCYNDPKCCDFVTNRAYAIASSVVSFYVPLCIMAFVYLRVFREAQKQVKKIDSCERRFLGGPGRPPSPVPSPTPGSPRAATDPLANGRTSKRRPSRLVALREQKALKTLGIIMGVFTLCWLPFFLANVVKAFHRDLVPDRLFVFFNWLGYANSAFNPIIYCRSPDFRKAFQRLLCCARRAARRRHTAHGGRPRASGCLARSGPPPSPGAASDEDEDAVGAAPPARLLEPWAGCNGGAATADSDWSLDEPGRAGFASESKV
Beta-2 adrenergic receptor (Rattus norvegicus), sequence (P10608 whole entry, looked up): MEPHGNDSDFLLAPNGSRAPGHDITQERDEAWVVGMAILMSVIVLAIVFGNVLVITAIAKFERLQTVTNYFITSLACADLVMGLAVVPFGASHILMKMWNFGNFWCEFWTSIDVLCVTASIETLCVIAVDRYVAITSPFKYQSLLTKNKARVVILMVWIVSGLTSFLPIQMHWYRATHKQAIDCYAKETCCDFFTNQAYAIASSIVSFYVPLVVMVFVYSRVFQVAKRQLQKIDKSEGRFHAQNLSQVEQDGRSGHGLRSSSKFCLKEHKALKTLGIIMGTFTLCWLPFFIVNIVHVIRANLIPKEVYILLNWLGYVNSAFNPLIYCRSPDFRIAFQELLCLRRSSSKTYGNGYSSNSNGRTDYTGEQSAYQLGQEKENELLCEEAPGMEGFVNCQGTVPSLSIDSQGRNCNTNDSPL

`CC(C)NCC(O)COC1=CC(=O)C(=O)c2ccccc21` (centres undefined): the Kb in experiment [1] was 50.1 nM; in experiment [2] it was 29.5 nM.

In the case of `CC(C)NCC(O)COc1ccc(O)c2ccccc12` (centres undefined) [4-HYDROXYPROPRANOLOL SULFATE], the values for the Kb in experiment [1] and in experiment [2] were 5.75 nM and 2.4 nM, respectively.
